Data taken from patent US20250231157A1, “METHOD FOR DETERMINING THE PARTITION OF NAPHTHENIC ACIDS FROM A PRODUCTION WATER MIMICKING SYSTEM AND MIMICKING SYSTEM” (PETRÓLEO BRASILEIRO S.A. – PETROBRAS, priority 2023, published 2025).
Where “and” joins values, the source holds several entries; their conditions need not be identical. Identical values can stand only once.

Legend:
[1] = Partition equilibrium with addition of calcium and strontium salts to the aqueous phase; type: physicochemical
Protocol: The addition of salts to the reaction system is of fundamental importance when one intends to mimic field conditions. In this sense, in addition to continuing the study of the salinity effect (Example 4), the insertion of salts containing Ca^2+ and Sr^2+ ions, known to be present in seawater, was tested. To this end, the projects were based on the literature (Zheng, J. et al. Offshore produced water management: A review of current practice and challenges in harsh/Arctic environments. Mar. Pol. Bul. 2016, 104, 7-19) and four concentrations of each of the two ions were evaluated (400.0, 1200.0, 2600.0 and 9000.0 mg·L^−1), maintaining salinity at 3.5% (m·v^−1).
In short, the experimental results were generated in triplicate, using 99% NaCl to add salinity to the aqueous fraction and PA calcium chloride and PA strontium chloride to add calcium and strontium, respectively.
The addition of calcium and strontium to the reaction system, in the form of salts, aims at mimicking the real scenario in which both species are present (regardless of the salinity of the medium), especially in the well condition. This study aimed at understanding the effect (on the migration of acids to the organic phase) of this ion in the system also at concentrations higher than 10 mM. Finally, the experiments (in triplicate) with divalent strontium ions followed the same rationale.

[2] = Partition equilibrium under the influence of salinity (NaCl), glass reactor, neutralization titration; type: physicochemical
Protocol: The variation in salinity (and its effect on acidic species) is due to the large variation in salinity found between the portions of bottom-hole water, middle-well water and surface water. Thus, systems with salinity (i.e., NaCl) between 3.5 and 30% (m·v^−1) were tested in a glass reactor, and neutralization titration was performed (in triplicate analysis), as previously described. Furthermore, the experimental results were generated in triplicate, using 99% NaCl (Sigma-Aldrich) with five acidic species.

[3] = as above; type: physicochemical; details: Salinity 0 (%, m · m^−1) NaCl
[4] = Control experiments: availability of the species in alkaline aqueous medium without using the reactor; type: physicochemical; details: acid solubilized directly in aqueous phase, no reactor
Protocol: Previously, the back titration procedure was internalized and optimized (Example 1), ensuring that the reproducibility of the measurements was adequate (standard deviation values below 10%, for example) and that the recoveries were close to what was expected based on the purity of the reagents (i.e., close to or above 90%). […] Control experiments were performed (measuring the availability of the species in an aqueous medium, without using the reactor) by solubilizing the organic acid directly in the aqueous phase and titrating a 10.0 mL aliquot; the same way, experiments were performed in the reactor based on the standardization of heptol and salinity already discussed (3.5%).

[5] = Partition equilibrium in the presence of demulsifiers (Dissolvan 961, Dissolvan 974)
[6] = Partition equilibrium in the presence of surfactants (TBA, CTA, TMA); type: physicochemical; details: for Increase in migration to the aqueous phase with CTA: surfactant CTA, 1000 mg·L^−1
From the text: The presence of chemical compounds usually added in the chain of unit operations of oil extraction and production, such as demulsifiers and surfactants, can affect the partition equilibrium of species in this water/oil system. In order to understand the extent of this effect, as well as discern the relevance of the chemical structure on this effect, the following items were chosen: • Dissolvan 961 (Clariant), composed of oil hydrocarbons (CAS 918-811-1) and ethanol (CAS 64-17-5); • Dissolvan 974 (Clariant), composed of EO-PO block polymer poly adducts and Bisphenol-A-diglycidyl ether (CAS 68123-18-2) and ethanol (CAS 64-17-5); • Tetrabutylammonium chloride (CAS 1112-67-0), 97% purity; • Cetyltrimethylammonium chloride (CAS 112-02-7), 25% in water; and • Trimethylammonium chloride (CAS 593-81-7), 98% purity.
For this study, the experiments (in triplicate) used between 100.0 and 1000.0 mg·L^−1 of each compound, comparing the results with control tests (absence of the component), all with constant salinity at 3.5% (m·v^−1). Finally, neutralization titration with a standardized NaOH titrant solution was used to determine the effect on the partition equilibrium for four acidic species (the same as in the other examples, except for dicyclohexylacetic acid).
Considering the study with surfactants, the (individual) addition of three species to the control system was evaluated (tetrabutylammonium chloride (TBA), tetramethylammonium chloride (TMA) and cetyltrimethylammonium chloride (CTA)). For this purpose, the surfactants have distinct chemical structures, namely the size of the side chain, and their eventual effect on the partition equilibrium of the acidic species was evaluated.

[7] = Partition equilibrium in reactor pressurized with CO2, in presence and absence of alkalinity (NaHCO3, Na2CO3), back titration
Protocol: In the initial tests, 100 mL of heptol and 300 mL of water (with or without salinity) were used, with the addition of acidic species in the organic phase, in order to verify migration to the aqueous phase. As a rule, the system was kept under agitation at 500 rpm for 8 min, followed by rest for 10 min and, finally, collection of 50.0 mL aliquots of the aqueous phase for titrimetric analysis.
A 316 stainless steel alloy reactor (Parr®) (capacity for 600 mL and operational up to 20 MPa pressure) was used. For this purpose, a temperature range between 25° C. and 80° C. and pressure between 0.1 MPa and 1.0 MPa were used, and the reactor was pressurized with CO2. Thus, the results were compared (in terms of migration of the acidic species (%, mol) by means of back titrations) and the influence of pressure and temperature on the partition was estimated, as well as possible synergistic effects with the sources of alkalinity added to the aqueous phase.

[8] = Calcium 400 mg · L^−1, salinity 3.5%
[9] = Calcium 1200 mg · L^−1, salinity 3.5%
[10] = Calcium 2600 mg · L^−1, salinity 3.5%
[11] = Strontium 400 mg · L^−1, salinity 3.5%
[12] = Strontium 1200 mg · L^−1, salinity 3.5%
[13] = Strontium 2600 mg · L^−1, salinity 3.5%
[14] = Salinity 3.5 (%, m · m^−1) NaCl
[15] = Salinity 18.0 (%, m · m^−1) NaCl
[16] = Salinity 30.0 (%, m · m^−1) NaCl
[17] = Na2CO3 + NaHCO3 (3.48×10^−5 mol)
[18] = Absence of ions (no demulsifier), salinity 3.5%
[19] = Absence of surfactant, salinity 3.5%
[20] = CTA100 (cetyltrimethylammonium chloride 100 mg · L^−1)
[21] = TBA100 (tetrabutylammonium chloride 100 mg · L^−1)
[22] = TMA100 (trimethylammonium chloride 100 mg · L^−1)
[23] = 25° C. and 1.0 MPa CO2, no alkalinity
[24] = 80° C. and 1.0 MPa CO2, no alkalinity
[25] = Na2CO3 + NaHCO3, 25° C. and 0.1 MPa
[26] = Na2CO3 + NaHCO3, 25° C. and 1.0 MPa CO2
[27] = Na2CO3 + NaHCO3, 80° C. and 1.0 MPa CO2
[28] = Reference (heptol + 3.5% NaCl), no alkalinity

SMILES: O=C(O)CCCCC1CCCCC1 [Cyclohexanepentanoic Acid, cyclohexanepentanoic acid]
- Migration ([1]; Absence of ions, salinity 3.5%): 4.9 %, mol
- Migration [1, 8]: 5.5 %, mol
- Migration [1, 9]: 4.7 %, mol
- Migration [1, 10]: 4.8 %, mol
- Migration [1, 11]: 4.4 %, mol
- Migration [1, 12]: 5.3 %, mol
- Migration [1, 13]: 4.8 %, mol
- Effect of calcium ion on migration to the aqueous phase ([1]; calcium up to the maximum study concentrations): no variation in migration
- Effect of strontium ions on migration to the aqueous phase ([1]; strontium 400-2600 mg·L^−1): no effect
- Migration to aqueous medium, approximate level over the salinity study ([2]; 0-30% NaCl): ~5%
- Effect of the addition of salinity on migration ([2]; 3.5-30% NaCl, 95% reliability): no significant effect
- Migration [2, 14]: 5.5 %, mol
- Migration [2, 15]: 5.5 %, mol
- Migration [2, 16]: 4.8 %, mol
- Migration [3]: 4.9 %, mol
- Availability (reference value) [4, 17]: 100 % mol
- Availability (reference value) ([4]; NaHCO3 (3.45×10^−5 mol)): 100 % mol
- Migration [5, 18]: 4.9 %, mol
- Migration ([5]; D961 50 mg · L^−1): 5.42 %, mol
- Migration ([5]; D961 100 mg · L^−1): 5.16 %, mol
- Migration ([5]; D961 1000 mg · L^−1): 10.2 %, mol
- Migration ([5]; D974 50 mg · L^−1): 4.78 %, mol
- Migration ([5]; D974 100 mg · L^−1): 5.26 %, mol
- Migration ([5]; D974 1000 mg · L^−1): 12.80 %, mol
- Increase in migration to the aqueous phase with demulsifier ([5]; addition of 1000 mg·L^−1 demulsifier): ~100%
- Migration [6, 19]: 4.9 %, mol
- Migration [6, 20]: 2.1 %, mol
- Migration ([6]; CTA1000 (1000 mg · L^−1)): 38.9 %, mol
- Migration [6, 21]: 18.5 %, mol
- Migration ([6]; TBA1000 (1000 mg · L^−1)): 18.4 %, mol
- Migration [6, 22]: 0.0 %, mol
- Migration ([6]; TMA1000 (1000 mg · L^−1)): 0.0 %, mol
- Increase in migration to the aqueous phase with CTA [6]: above 700%
- Increase in the tendency to migrate to the aqueous phase with TBA ([6]; surfactant TBA, noticeable from 100 mg·L^−1): 370%
- Effect of TMA on partition equilibrium ([6]; surfactant TMA): migration tending to zero
- Migration [7, 23]: not quantifiable
- Migration [7, 24]: not quantifiable
- Migration [7, 25]: 71.1 % mol
- Migration [7, 26]: 100.0 % mol
- Migration [7, 27]: 100.0 % mol
- Migration ([7]; NaHCO3, 25° C. and 0.1 MPa): 82.7 % mol
- Migration ([7]; NaHCO3, 25° C. and 1.0 MPa CO2): 100.0 % mol
- Migration ([7]; NaHCO3, 80° C. and 1.0 MPa CO2): 100.0 % mol
- Migration [7, 28]: 4.9 % mol and 4.3 % mol

SMILES: O=C(O)c1ccccc1 [Benzoic Acid, benzoic acid]
- Migration ([1]; Absence of ions, salinity 3.5%): 82.0 %, mol
- Migration [1, 8]: 80.0 %, mol
- Migration [1, 9]: 56.7 %, mol
- Migration [1, 10]: 56.7 %, mol
- Migration [1, 11]: 83.0 %, mol
- Migration [1, 12]: 83.0 %, mol
- Migration [1, 13]: 83.0 %, mol
- Extent of salting out effect in the presence of calcium ([1]; calcium ions, salinity 3.5%): greater than 30%
- Migration to the aqueous phase in the presence of strontium ([1]; strontium ions): above 80 % (m·v^−1)
- Salting out effect (reduction in the number of moles contained in the aqueous phase) ([2]; 30% (m·v^−1) NaCl versus tests without salinity): approximately 400%
- Migration [2, 14]: 83.0 %, mol
- Migration [2, 15]: 41.0 %, mol
- Migration [2, 16]: 22.5 %, mol
- Migration ([2]; Salinity 30.0 (%, m · m^−1) NaCl, listed as benzoic acid): 22.51 %, mol
- Migration [3]: 82.9 %, mol
- Availability (reference value) [4, 17]: 72.2 % mol
- Availability (reference value) ([4]; NaHCO3 (3.45×10^−5 mol)): 83.1 % mol
- Migration [5, 18]: 82.0 %, mol
- Migration ([5]; D961 50 mg · L^−1): 62.3 %, mol
- Migration ([5]; D961 100 mg · L^−1): 70.3 %, mol
- Migration ([5]; D961 1000 mg · L^−1): 68.4 %, mol
- Migration ([5]; D974 50 mg · L^−1): 63.1 %, mol
- Migration ([5]; D974 100 mg · L^−1): 57.3 %, mol
- Migration ([5]; D974 1000 mg · L^−1): 59.7 %, mol
- Migration [6, 19]: 82.0 %, mol
- Migration [6, 20]: 57.1 %, mol
- Migration ([6]; CTA1000 (1000 mg · L^−1)): 66.3 %, mol
- Migration [6, 21]: 55.5 %, mol
- Migration ([6]; TBA1000 (1000 mg · L^−1)): 54.8 %, mol
- Migration [6, 22]: 63.4 %, mol
- Migration ([6]; TMA1000 (1000 mg · L^−1)): 63.7 %, mol
- Increase in migration to the aqueous phase with CTA [6]: ~10%
- Effect of TBA on migration to the aqueous phase ([6]; surfactant TBA, different concentrations): no significant effect
- Increase in affinity for the hydrophilic phase with TMA ([6]; surfactant TMA, from 100 mg·L^−1): approximately 10%
- Migration [7, 23]: 64.4 % mol
- Migration [7, 24]: 59.3 % mol
- Migration [7, 25]: 49.3 % mol
- Migration [7, 26]: 100 % mol
- Migration [7, 27]: 88.3 % mol
- Migration ([7]; NaHCO3, 25° C. and 0.1 MPa): 53.6 % mol
- Migration ([7]; NaHCO3, 25° C. and 1.0 MPa CO2): 93.3 % mol
- Migration ([7]; NaHCO3, 80° C. and 1.0 MPa CO2): 88.9 % mol and 88.6 % mol
- Migration [7, 28]: 82.0±3.0 % mol and 82 % mol
